# “Also recorded” adds a separate entry of the source.
# Legend:
# [1] = system: PRA in Sprague Dawley rats with renal arteries ligated; experiment: Plasma renin activity (PRA) in the bilateral renal artery ligated rat; type: in vivo; conditions: 1 mg/kg IV; for prevention of PRA increase, in words: 30 and 60 minutes; for Change in PRA at 30 minutes: 30 minutes after dosing; for Change in PRA at 60 minutes: 60 minutes after dosing
# Description: Adenosine Al receptor stimulation will inhibit the release of renin from the kidney. A stimulus for the release of renin is renal ischemia. The ability of the compounds of the present invention to prevent an increase in PRA following renal ischemia was tested in rats with both renal arteries ligated. Sprague Dawley rats were anesthetized with ether and the renal arteries were ligated. Three to five hours after anesthesia, arterial blood was sampled and compounds I, II or III were administered in polyethylene glycol at 1 mg/kg I.V. At 30 and 60 minutes after administration, arterial blood was sampled for PRA measurement by the method of Sealy, J. E. et al., Cardiovasc. Med. 2:1079, 1977.
# adenosine A1 receptor = molecular target: T1, adenosine A1 receptor (Rattus norvegicus, UniProt P25099); experiment: Adenosine A1 receptor binding, inhibition of HPIA binding to crude plasma membranes
# T1 construct: Crude plasma membranes were prepared; from tissue; host or cells: crude plasma membranes
# T1 sequence (P25099 1-326): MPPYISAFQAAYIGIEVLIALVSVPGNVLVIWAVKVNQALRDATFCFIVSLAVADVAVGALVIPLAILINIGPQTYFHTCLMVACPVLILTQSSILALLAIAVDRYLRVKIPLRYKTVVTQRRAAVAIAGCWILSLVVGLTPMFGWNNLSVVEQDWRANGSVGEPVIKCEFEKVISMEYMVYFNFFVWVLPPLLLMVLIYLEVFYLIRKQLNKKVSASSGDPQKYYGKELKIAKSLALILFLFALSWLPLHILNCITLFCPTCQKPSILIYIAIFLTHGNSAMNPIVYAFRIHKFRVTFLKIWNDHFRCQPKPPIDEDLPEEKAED
# Description: The binding potency of compound I, II and III to the adenosine Al receptor was measured according to the method of Schwabe, U. et al., Naunyn Schmeid. Arch. Pharmacol. 321:84, 1982. Crude plasma membranes were prepared and varying concentrations of compounds I, II or III were added to the membrane preparation in the presence of ^125 -N-p hydroxyphenyl isopropyladenosine (HPIA). The affinity of the compounds for the adenosine Al receptor was estimated from the concentrations necessary to inhibit the binding of HPIA by 50% (IC50).
# mice [2] = experiment: Behavioral signs of toxicity in mice; type: in vivo; design: key to Motor depression / Ptosis / Respiratory depression / Flaccidity / Loss of righting reflex: +: toxic symptom observed; +*: * = 2/7; +^#: ^# = 5/7; conditions: 75 mg/kg IP
# Description: (§1) Adenosine analogs tend to produce sedation and central nervous system depression which have prevented their therapeutic utility. The compounds of the invention, at doses which lower arterial pressure in the SHR, show no evidence of CNS depression. The ataxia produced by compounds of the present invention was measured in mice by injecting the compounds IP at doses of 32, 56, or 75 mg/kg in an aqueous suspension, n=7 per dose. The mice had previously been trained to remain on a rotating rod. After dosing, the percent of mice unable to remain on the rotating rod was determined. […] The mice were also observed at various time intervals for behavioral signs of toxicity.
# [3] = system: adenosine A1 receptor in the granular juxtaglomerular cells of the kidney; conditions: Federation Proceedings 44:879 & 1643, 1985; cited from earlier work
# hypertensive models = conditions: Federation Proceedings 44:879 & 1643, 1985; cited from earlier work
# mice [4] = experiment: Ataxia, rotating rod, in mice; type: in vivo, mouse; conditions: for Percent ataxic, 0.5 hour / Percent ataxic, 3 hour: 54 ± 12 mg/kg ip (pooled 32, 56, 75 mg/kg); for ataxia / motor toxicity compared to compound I, in words: ip, 0.5 or 3 hours
# Description: as §1
# [5] = system: spontaneously hypertensive rats (SHR); experiment: Mean arterial pressure and heart rate in conscious spontaneously hypertensive rats (IV and intragastric); type: in vivo, rat; conditions: for Maximum decrease at 20 mg/kg ig, HR / Maximum decrease at 20 mg/kg ig, MAP: day 2 of oral administration; for ED (100 b/min decrease) / ED (40 mmHg decrease): Rattus norvegicus, IV; for ED (100 b/min decrease): read-out: IV dose to decrease HR by 100 b/min; for ED (40 mmHg decrease): read-out: IV dose to decrease MAP by 40 mmHg
# Description: The effects of compounds I and II were tested intravenously or intragastrically in conscious spontaneously hypertensive rats (SHR). The rats were anesthetized with ether and the left carotid artery and right jugular vein were cannulated with polyethylene tubing. The rats were allowed three to five hours recovery from anesthesia for the I.V. studies and 12 to 18 hours for the oral studies. Mean arterial pressure (MAP, in mm/Hg) and heart rate (HR, beats/min.) were measured from the artery; intravenous administration of compounds was performed by injection into the vein. Oral administration was performed by gastric intubation. Compounds were dissolved in DMSO for I.V. studies and injected in volumes of […] or less (N=5 per compound). Doses were 3 to 1,000 mg/kg. Compounds were dissolved in polyethylene glycol for oral administration and injected in volumes of 1 ml/kg at dose of 20 mg/kg/day for three days (N=3 to 6 per compound).
# The resting MAP and HR for the SHR ranged between 160-200 mm Hg and 330/350 b/min., respectively.
# central nervous system = experiment: CNS toxicity / CNS depression, general statements; type: in vivo; conditions: summary statement
Structure (SMILES),"prevention of PRA increase, in words [1]",Change in PRA at 30 minutes [1] [ngAI/ml/hr],Change in PRA at 60 minutes [1] [ngAI/ml/hr],IC50 (adenosine A1 receptor) [nM],behavioral toxicity in words (mice [2]; 18-20 hours),Flaccidity (mice [2]; 18-20 hr),Motor depression (mice [2]; 18-20 hr),Ptosis (mice [2]; 18-20 hr),Motor depression (mice [2]; 0.5 hr),Ptosis (mice [2]; 0.5 hr),Respiratory depression (mice [2]; 0.5 hr),Motor depression (mice [2]; 3 hr),Ptosis (mice [2]; 3 hr),Respiratory depression (mice [2]; 3 hr),"Percent ataxic, 0.5 hour (mice [4]) [%]","Percent ataxic, 3 hour (mice [4]) [%]","Maximum decrease at 20 mg/kg ig, HR [5] [b/min]","Maximum decrease at 20 mg/kg ig, MAP [5] [mmHg]",ED (100 b/min decrease) [5] [mg/kg],ED (40 mmHg decrease) [5] [mg/kg],also measured
"OC[C@H]1O[C@@H](n2cnc3c(NCC(O)COc4cccc5ccccc45)ncnc32)[C@H](O)[C@@H]1O (mixture of isomers) [Compound I, N(6) [2 hydroxy-3-(1 naphthyloxy)propyl]-adenosine]",prevented to the same extent,-2.9 ± 5.0,-9.4 ± 7.4,1.2,still producing several of the toxic symptoms,+*,+,+,+,+,+,+,+,+,33 ± 10,95 ± 5,214 ± 14,50 ± 13,0.037 ± 0.0013,0.052 ± 0.0013,"Respiratory depression (mice [2]; 18-20 hr): +; behavioral toxicity in words (mice [2]; 3 hours): also produced flaccidity and loss of writhing reflex; Flaccidity (mice [2]; 3 hr): +; Loss of righting reflex (mice [2]; 3 hr): +; binding to the adenosine A1 receptor, in words [3]: binds to the adenosine Al receptor; inhibition of renin release into the plasma, in words [3]: inhibit release of renin into the plasma; arterial blood pressure and heart rate, in words (hypertensive models): reducing arterial blood pressure and heart rate"
"OC[C@H]1O[C@@H](n2cnc3c(NC[C@@H](O)COc4cccc5ccccc45)ncnc32)[C@H](O)[C@@H]1O [II, N-[2R-hydroxy-3-(1-naphthalenyloxy)propyl]-adenosine]",prevented to the same extent,-11.7 ± 3.5,-13.8 ± 4.9,1.2,still producing several of the toxic symptoms,+,+,+,+,+,+,+,+,+,14 ± 8,48 ± 21,202 ± 24,62 ± 7,0.036 ± 0.0012,0.047 ± 0.0012,"Respiratory depression (mice [2]; 18-20 hr): +; behavioral toxicity in words (mice [2]; 24 hours): still producing toxic symptoms; Motor depression (mice [2]; 24 hr): +^#; Ptosis (mice [2]; 24 hr): +^#; Respiratory depression (mice [2]; 24 hr): ^#; ataxia / motor toxicity compared to compound I, in words (mice [4]): less motor toxicity than compound I; also recorded: less toxic than compound I with regard to ataxia; also recorded: less ataxia at 0.5 or 3 hours as compared to compound I; central nervous system toxicity, comparison in words (central nervous system): less central nervous system toxicity than the S diastereomer; also recorded: less central nervous system toxicity than the racemic mixture"
"OC[C@H]1O[C@@H](n2cnc3c(NC[C@H](O)COc4cccc5ccccc45)ncnc32)[C@H](O)[C@@H]1O [III, N-[2S-hydroxy-3[1-naphthalenyloxy)propyl]-adenosine]",prevented to the same extent,-6.6 ± 4.0,-6.3 ± 3.9,1.2,no toxicity was observed,,,,+,+,+,+,+,+,14 ± 0,57 ± 8,177 ± 19,50 ± 14,0.031 ± 0.0014,0.033 ± 0.0012,"behavioral toxicity, overall comparison in words (mice [2]; mice): substantially less toxic than compounds I and II; also recorded: less CNS toxic than compound II with regard to behavioral toxicity; ataxia / motor toxicity compared to compound I, in words (mice [4]): less motor toxicity than compound I; also recorded: less ataxia at 0.5 or 3 hours as compared to compound I"

# Source: US4992535A, “Methods of making novel R and S diastereomers of N^6 -[(2-hydroxypropyl)aryl]adenosines” (G. D. Searle & Co., priority 1988, dated 1991)
